Measured values from US20260008775A1, “AZOLE MODULATORS OF CHOLESTEROL BIOSYNTHESIS AND THEIR USE FOR PROMOTING REMYELINATION” (GENENTECH, INC., priority 2022, published 2026).
pEC50, pKi: −log10 of the molar value. Read-outs that look alike come from different tables or passages of the source.

Assays:
[1] = molecular target: human emopamil binding protein and human 7-dehydrocholesterol reductase (hEBP-DHCR7) (Homo sapiens (Human), UniProt Q15125); assay: hEBP-DHCR7 radioligand binding assay (filter binding, membranes of co-expressing HEK293 cells); conditions: competition with [3H] radioligand, 8 doses 0.06 to 5000 nM, Ki calculated from IC50
How it was run: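 Membranes from HEK293 cells transiently co-expressing hEBP and DHCR7 (10 μg/well) were incubated for 3 h at 22 °C with tritiated spiro-sulfone radioligand (added at 25 nM) and compound at 1 μM or 0.06–5000 nM. Filtration and scintillation counting followed. Inhibition was normalised to 5 μM unlabelled ligand and DMSO, and Ki was derived as IC50/(1+[L]/Kd).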

EpiSC-derived OPCs = assay: In vitro phenotypic screening of OPCs, MBP high-content imaging (percentage of oligodendrocytes); type: cell-based, mouse; conditions: for pEC50: 3 days, MBP stain, dose-response 0.5 nM to 1000 nM, read-out: OPC EC50
Experimental: To assess effects of treatments on OPCs, all treatments were assayed in two or more independent platings of epiblast stem cell-derived OPCs (EpiSC). EpiSC-derived OPCs were obtained using in vitro differentiation protocols and culture conditions described previously (Najm et al, 2011, Nature Methods). OPCs were expanded and frozen down in aliquots. OPCs were thawed into growth conditions for at least one passage before use in further assays.
EpiSC-derived OPCs were grown and expanded in poly-L-ornithine (PO) and laminin-coated flasks in N2B27 media (DMEM/F12 (Gibco), N2-MAX (R&D Systems), B-27 (ThermoFisher), and GlutaMax (Gibco)) supplemented with FGF2 (10 μg/mL, R&D systems, 233-FB-025) and PDGF-AA (10 μg/mL, R&D systems, 233-AA-050) before harvesting for experiments. The cells were seeded onto poly-L-ornithine or poly-D-lysine coated CellCarrier Ultra plates (PerkinElmer) coated with laminin (Sigma, L2020) at a density of 150,000/cm^2 in N2B27 media without growth factors. For dose-response testing, a 1000× compound stock in dimethyl sulphoxide (DMSO) was added to assay plates, resulting in 8-point dose curves with final concentrations between 1000 nM and 0.5 nM. Positive controls and DMSO vehicle controls were included in each assay plate. Cells were incubated under standard conditions (37° C., 5% CO2) for 3 days and fixed with 4% paraformaldehyde (PFA) in phosphate buffered saline (PBS) for 20 min. Fixed plates were washed with PBS, permeabilized with 0.1% Triton X-100, and blocked with 10% donkey serum (v/v) in PBS for 40 min. Then, cells were labelled with MBP antibodies (Abcam, ab7349; 1:200) for 2 h at room temperature, washed with PBS, and stained with Alexa Fluor conjugated secondary antibodies (1:500) for 45 min. Nuclei were visualized by DAPI staining (Sigma; […]), followed by further PBS washes.
Cells and cell culture plates were imaged on the Operetta High Content Imaging and Analysis system (PerkinElmer). Analysis (PerkinElmer Harmony and Columbus software) began by identifying intact nuclei stained by DAPI. The peri-nuclear region of each cell was then cross-referenced with the mature myelin protein (MBP) stain to identify oligodendrocyte nuclei, and from this the percentage of oligodendrocytes was calculated. EC50 values were calculated using The Levenberg-Marquardt algorithm to fit a Hill equation to dose-response data (0.5 nM to 1000 nM).

[2] = system: zymostenol accumulation (EBP) in EpiSC-derived OPCs; assay: GC/MS-based sterol profiling, zymostenol accumulation in EpiSC-derived OPCs; type: cell-based, mouse; conditions: for pEC50: EpiSC-derived OPCs, 24 hr, 8 doses from 0.15 nM to 333 nM, read-out: Mouse Zymostenol GCMS EC50
How it was run: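 Mouse epiblast stem cell-derived OPCs plated at 100,000 cells/well in growth-factor-free N2B27 and treated 24 h. Sterols extracted by modified Folch wash, silylated with BSTFA, and quantified by electron-impact GC/MS against cholesterol-d7 (zymostenol ion 458). Zymostenol normalised to 24 h 100 nM positive-control reference.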

human emopamil binding protein and human 7-dehydrocholesterol reductase (hEBP-DHCR7), sequence (Q15125 whole entry): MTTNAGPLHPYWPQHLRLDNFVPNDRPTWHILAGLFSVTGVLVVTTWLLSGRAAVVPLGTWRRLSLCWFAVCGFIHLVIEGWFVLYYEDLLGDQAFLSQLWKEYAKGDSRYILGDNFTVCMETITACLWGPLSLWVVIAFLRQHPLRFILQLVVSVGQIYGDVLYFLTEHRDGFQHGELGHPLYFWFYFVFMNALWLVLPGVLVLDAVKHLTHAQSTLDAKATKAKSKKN

Row | Structure (SMILES) | pKi [1] | pEC50 (EpiSC-derived OPCs; Mus musculus, 72 h) | pEC50 ([2]; Mus musculus, 24 h) | pEC50 (EpiSC-derived OPCs) | pEC50 [2] | fold decrease in activity in the OPC assay (EpiSC-derived OPCs; as compared to compound 29*) | fold decrease in activity in the mouse zymostenol assay ([2]; as compared to compound 29*)
1 | FC(F)(F)c1cccc(-c2nc([C@H]3CC[C@H](N4CCCOCC4)C3)n(C3CC3)n2)n1 (single isomer, unassigned) [9*] | 6.95 | 7.13 | 7.67 |  |  |  | 
2 | FC(F)(F)c1cccc(-c2nc([C@H]3CC[C@@H](N4CCCOCC4)C3)n(C3CC3)n2)n1 (single isomer, unassigned) [10*] | 7.02 | 7.27 | 7.74 |  |  |  | 
3 | FC(F)(F)c1cccc(-c2nc([C@@H]3CC[C@@H](N4CCCOCC4)C3)n(C3CC3)n2)n1 (single isomer, unassigned) [11*] | 6.87 | 6.97 | 7.71 |  |  |  | 
4 | FC(F)(F)c1cccc(-c2nc([C@@H]3CC[C@H](N4CCCOCC4)C3)n(C3CC3)n2)n1 (single isomer, unassigned) [12*] | 6.92 | 7.20 | 7.19 |  |  |  | 
5 | CC(C)n1nc(-c2cccc(C(F)(F)F)c2)nc1[C@@H]1CC[C@@H](N2CCOCC2)C1 (single isomer, unassigned) [21*] | 7.57 | 7.29 | 8.11 |  |  |  | 
6 | CC(C)n1nc(-c2cccc(C(F)(F)F)c2)nc1[C@@H]1CC[C@H](N2CCOCC2)C1 (single isomer, unassigned) [22*] | 7.96 | 8.17 | 8.88 |  |  |  | 
7 | CC(C)n1nc(-c2cccc(C(F)(F)F)c2)nc1[C@H]1CC[C@H](N2CCOCC2)C1 (single isomer, unassigned) [23*] | 7.81 |  |  | 6.88 | 7.88 |  | 
8 | CC(C)n1nc(-c2cccc(C(F)(F)F)c2)nc1[C@H]1CC[C@H](N2CCOCC2)C1 (single isomer, unassigned) [24*] | 8.05 |  |  | 7.95 | 8.78 |  | 
9 | CC(C)n1nc(-c2cc(C(F)(F)F)ccn2)nc1[C@@H]1CC[C@H](N2CCOCC2)C1 (single isomer, unassigned) [28*] | 7.52 | 7.09 | 8.09 |  |  |  | 
10 | CC(C)n1nc(-c2cncc(C(F)(F)F)c2)cc1[C@H]1[C@@H]2CC(N3CCCOCC3)C[C@@H]21 (single isomer, unassigned) [30*] | 7.49 | 7.05 | 7.83 |  |  |  | 
11 | CC(C)n1nc(-c2cncc(C(F)(F)F)c2)cc1[C@H]1[C@@H]2C[C@@H](N3C[C@H]4C[C@@H]3CO4)C[C@@H]21 (single isomer, unassigned) [35*] | 6.95 | 6.76 | 7.52 |  |  |  | 
12 | CC(C)n1nc(-c2cncc(C(F)(F)F)c2)cc1[C@H]1[C@@H]2C[C@@H](N3C[C@@H]4C[C@H]3CO4)C[C@@H]21 (single isomer, unassigned) [36*] | 6.68 | 6.84 | 6.64 |  |  |  | 
13 | CC(C)n1nc(-c2cncc(C(F)(F)F)c2)cc1[C@H]1[C@@H]2C[C@H](N3C[C@H]4C[C@@H]3CO4)C[C@@H]21 (single isomer, unassigned) [37*] | 7.48 | 7.01 | 7.74 |  |  |  | 
14 | CC(C)n1nc(-c2cncc(C(F)(F)F)c2)cc1[C@H]1[C@@H]2C[C@H](N3C[C@@H]4C[C@H]3CO4)C[C@@H]21 (single isomer, unassigned) [38*] | 7.32 | 7.15 | 8.03 |  |  |  | 
15 | CC(C)n1nc(-c2cncc(C(F)(F)F)c2)cc1[C@H]1[C@@H]2C[C@@H](N3CCO[C@@H](C)C3)C[C@@H]21 (single isomer, unassigned) [39*] | 6.11 | 6.28 | 6.59 |  |  |  | 
16 | CC(C)n1nc(-c2cncc(C(F)(F)F)c2)cc1[C@H]1[C@@H]2C[C@@H](N3CCO[C@H](C)C3)C[C@@H]21 (single isomer, unassigned) [40*] | 6.95 | 6.49 | 7.11 |  |  |  | 
17 | CC(C)n1nc(-c2cncc(C(F)(F)F)c2)cc1[C@H]1[C@@H]2C[C@H](N3CCO[C@@H](C)C3)C[C@@H]21 (single isomer, unassigned) [41*] | 7.65 | 8.11 | 8.54 |  |  |  | 
18 | CC(C)n1nc(-c2cncc(C(F)(F)F)c2)cc1[C@H]1[C@@H]2C[C@H](N3CCO[C@H](C)C3)C[C@@H]21 (single isomer, unassigned) [42*] | 7.63 | 7.36 | 8.05 |  |  |  | 
19 | CC(C)n1nc(-c2cccc(C(F)(F)F)c2)nc1[C@H]1[C@@H]2C[C@@H](N3CCCOCC3)C[C@@H]21 [Compound 14, 4-((1R,3s,5S,6r)-6-(1-isopropyl-3-(3-(trifluoromethyl)phenyl)-1H-1,2,4-triazol-5-yl)bicyclo[3.1.0]hexan-3-yl)-1,4-oxazepane] |  | 7.09 | 7.40 |  |  |  | 
20 | CC(C)n1nc(-c2ccc(C(F)(F)F)nc2)nc1[C@H]1[C@@H]2C[C@H](N3CCCOCC3)C[C@@H]21 [Compound 15, 4-((1R,3r,5S,6r)-6-(1-isopropyl-3-(6-(trifluoromethyl)pyridin-3-yl)-1H-1,2,4-triazol-5-yl)bicyclo[3.1.0]hexan-3-yl)-1,4-oxazepane] |  | 7.65 | 8.22 |  |  |  | 
21 | CC(C)n1nc(-c2ccc(C(F)(F)F)nc2)nc1[C@H]1[C@@H]2C[C@@H](N3CCCOCC3)C[C@@H]21 [Compound 16, 4-((1R,3s,5S,6r)-6-(1-isopropyl-3-(6-(trifluoromethyl)pyridin-3-yl)-1H-1,2,4-triazol-5-yl)bicyclo[3.1.0]hexan-3-yl)-1,4-oxazepane] |  | 6.48 | 6.69 |  |  |  | 
22 | CC(C)n1nc(-c2cccc(OC(F)(F)F)c2)nc1[C@H]1[C@@H]2C[C@H](N3CCCOCC3)C[C@@H]21 [Compound 17, 4-((1R,3r,5S,6r)-6-(1-isopropyl-3-(3-(trifluoromethoxy)phenyl)-1H-1,2,4-triazol-5-yl)bicyclo[3.1.0]hexan-3-yl)-1,4-oxazepane] |  | 8.38 | 8.76 |  |  |  | 
23 | CC(C)n1nc(-c2cccc(OC(F)(F)F)c2)nc1[C@H]1[C@@H]2C[C@@H](N3CCCOCC3)C[C@@H]21 [Compound 18, 4-((1R,3s,5S,6r)-6-(1-isopropyl-3-(3-(trifluoromethoxy)phenyl)-1H-1,2,4-triazol-5-yl)bicyclo[3.1.0]hexan-3-yl)-1,4-oxazepane] |  | 7.11 | 7.28 |  |  |  | 
24 | CC(C)n1nc(-c2cncc(C(F)(F)F)c2)cc1[C@H]1[C@@H]2C[C@H](N3CCOCC3)C[C@@H]21 [Compound 171, 4-((1R,3r,5S,6r)-6-(1-Isopropyl-3-(5-(trifluoromethyl)pyridin-3-yl)-1H-pyrazol-5-yl)bicyclo[3.1.0]hexan-3-yl)morpholine] |  | 7.78 | 8.23 |  |  |  | 
25 | CC(C)n1nc(-c2ccc(C(F)(F)F)cn2)cc1[C@H]1[C@@H]2C[C@H](N3CCOCC3)C[C@@H]21 [Compound 174, 4-((1R,3r,5S,6r)-6-(1-Isopropyl-3-(5-(trifluoromethyl)pyridin-2-yl)-1H-pyrazol-5-yl)bicyclo[3.1.0]hexan-3-yl)morpholine] |  | 7.46 | 8.12 |  |  |  | 
26 | CC(C)n1nc(-c2cc(C(F)(F)F)ncn2)cc1[C@H]1[C@@H]2C[C@@H](N3CCOC[C@H]3C)C[C@@H]21 [Compound 202, (R)-4-((1R,3s,5S,6R)-6-(1-isopropyl-3-(6-(trifluoromethyl)pyrimidin-4-yl)-1H-pyrazol-5-yl)bicyclo[3.1.0]hexan-3-yl)-3-methylmorpholine] |  | 7.67 | 8.32 |  |  |  | 
27 | CC(C)n1nc(-c2cnc(N)c(C(F)(F)F)c2)cc1[C@H]1[C@@H]2C[C@H](N3CCCOCC3)C[C@@H]21 [Compound C, reference compound] |  | 7.12 | 7.81 |  |  | 3.8 fold | 4.9 fold
